PMC5623904, “Structural investigation of nucleophosmin interaction with the tumor suppressor Fbw7γ” (Oncogenesis, 2017)

Tests used:
Type in all cases: binding
[1] = target: T1, Nter-NPM1 D36A-E37A-E39A-E93A-E121A (Homo sapiens, UniProt P06748, D36A/E121A/E37A/E39A/E93A); assay: Equilibrium fluorescence titration, Nter-NPM1 quintuple mutant; settings: dansylated peptide 5 μM; sodium phosphate 20 mM pH 7.2, 25 °C; triplicate, ±s.d.
T1 construct: inferred from pET28a NdeI/BamHI cloning and HisTrap purification) (N); made in house; host or cells: Escherichia coli BL21(DE3)
T1 sequence (P06748 16-123 D36A/E37A/E39A/E93A/E121A): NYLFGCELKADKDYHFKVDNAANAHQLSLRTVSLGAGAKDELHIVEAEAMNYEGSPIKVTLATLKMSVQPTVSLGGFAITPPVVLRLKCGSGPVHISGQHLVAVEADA
Description: (§1) Nter-NPM1 mutants were obtained by site-directed mutagenesis using the Quickchange II Lightning Site-Directed Mutagenesis kit (Stratagene, La Jolla, CA, USA), following manufacturer’s instructions. Oligonucleotides used for PCR were obtained from Primm Biotech (Milan, Italy). Forward oligonucleotides used are reported in Supplementary Table 2.
(§2) All experiments were performed at 25 °C in sodium phosphate buffer 20 mM pH 7.2, or in sodium phosphate buffer 20 mM plus 100 mM NaCl pH 7.2 (which sets ionic strength to 150 mM), using a FluoroMax-4 spectrofluorometer (Jobin Yvon, Edison, NJ, USA), equipped with a water bath apparatus. Fbw7γ and CENP-W peptides, functionalized with a dansyl (5-dimetilamminonaftalen-1-sulphonyl) group at their N terminus, were purchased from JPT (Germany). Tat peptide was synthesized employing the solid phase method following standard Fmoc strategies and labeled with dansyl fluorophore at its N terminus. Crude product was purified by RP-HPLC applying a linear gradient of 0.1% TFA CH3CN in 0.1% TFA water from 5% to 65% over 12 min using a semi-preparative 2.2 × 5 cm C18 column at a flow rate of 20 ml/min. Purity and identity were confirmed by LC–MS analysis.
(§3) Titration experiments were conducted with an excitation wavelength of 330 nm while the fluorescence emission spectra were collected in the range between 350 and 650 nm. Titrations were performed at constant peptide concentration (5 μM) and varying protein concentrations (from 0 to 200/400 μM). Titrations were performed in triplicate and data, analyzed with the Graphpad Prism software (https://www.graphpad.com/scientific-software/prism/), were reported as dissociation constant±s.d.
(§4) Equilibrium binding curves were fitted to the standard quadratic equation: […]
(§5) where F is the observed fluorescence signal, n and [A]0 are the total concentration of non-varied and varied species, respectively, and KD is the equilibrium dissociation constant. B and C are constants taking into account the total fluorescence change and fluorescence at [A]0=0, respectively, and k is a term describing the slope of the curve at high protein concentration. Whenever possible, under pseudo first-order conditions, the equation 1 was simplified to: […]

[2] = target: T2, Nter-NPM1 D36A-E37A-E39A-E93A (Homo sapiens, UniProt P06748, D36A/E37A/E39A/E93A); assay: Equilibrium fluorescence titration, Nter-NPM1 quadruple mutant (E37A); settings: dansylated peptide 5 μM; sodium phosphate 20 mM pH 7.2, 25 °C; triplicate, ±s.d.; read-out: KD, D36A-E37A-E39A-E93A
T2 construct: inferred from pET28a NdeI/BamHI cloning and HisTrap purification) (N); made in house; host or cells: Escherichia coli BL21(DE3)
T2 sequence (P06748 16-123 D36A/E37A/E39A/E93A): as the sequence (P06748 16-123 D36A/E37A/E39A/E93A/E121A) above, with A106E counted along it
Description: as §1, §2, §3, §4, §5

[3] = target: T3, Nter-NPM1 (residues 16-123) (Homo sapiens, UniProt P06748); assay: Equilibrium fluorescence titration of dansylated peptide with Nter-NPM1; settings: for Nter-NPM1 KD: wild-type Nter-NPM1, N-terminally dansylated peptide 5 μM, protein 0 to 200/400 μM, sodium phosphate 20 mM pH 7.2, 25 °C, fluorescence ex 330 nm, triplicate, ±s.d., Ni = no interaction
T3 construct: inferred from pET28a NdeI/BamHI cloning and HisTrap purification) (N); made in house; host or cells: Escherichia coli BL21(DE3)
T3 sequence (P06748 16-123): as the sequence (P06748 16-123 D36A/E37A/E39A/E93A/E121A) above, with A21D, A22E, A24E, A78E, A106E counted along it
Description: as §2, §3, §4, §5

[4] = target: T4, Nter-NPM1 D36A-E39A-E93A-E121A (Homo sapiens, UniProt P06748, D36A/E121A/E39A/E93A); assay: Equilibrium fluorescence titration, Nter-NPM1 quadruple mutant (E121A); settings: dansylated peptide 5 μM; sodium phosphate 20 mM pH 7.2, 25 °C; triplicate, ±s.d.
T4 construct: inferred from pET28a NdeI/BamHI cloning and HisTrap purification) (N); made in house; host or cells: Escherichia coli BL21(DE3)
T4 sequence (P06748 16-123 D36A/E39A/E93A/E121A): as the sequence (P06748 16-123 D36A/E37A/E39A/E93A/E121A) above, with A22E counted along it
Description: as §1, §2
as §3, with “constant±s.d. […]” for “constant±s.d.”
as §5, with “concentration.” for “concentration. Whenever possible, under pseudo first-order conditions, the equation 1 was simplified to:”

Nter-NPM1 D36A-E39A-E93A = target: T5, Nter-NPM1 D36A-E39A-E93A (Homo sapiens, UniProt P06748, D36A/E39A/E93A); assay: Equilibrium fluorescence titration, Nter-NPM1 triple mutant; settings: dansylated peptide 5 μM; sodium phosphate 20 mM pH 7.2, 25 °C; triplicate, ±s.d.; read-out: KD, D36A-E39A-E93A
T5 construct: inferred from pET28a NdeI/BamHI cloning and HisTrap purification) (N); made in house; host or cells: Escherichia coli BL21(DE3)
T5 sequence (P06748 16-123 D36A/E39A/E93A): as the sequence (P06748 16-123 D36A/E37A/E39A/E93A/E121A) above, with A22E, A106E counted along it
Description: as §1, §2, §3, §4, §5

Nter-NPM1 KD [3]	Nter-NPM1 KD ([3]; listed as unrelated long)	Nter-NPM1 KD ([3]; listed as unrelated short)	Molecule	Kd [1] [µM]	Kd [2] [µM]	Kd ([3]; SD, read-out: Nter-NPM1 KD) [µM]	Kd [4] [µM]	Kd (Nter-NPM1 D36A-E39A-E93A) [µM]
			C[C@H](NS(=O)(=O)c1cccc2c(N(C)C)cccc12)C(=O)NCC(=O)N[C@@H](CCCNC(=N)N)C(=O)N[C@@H](CCCCN)C(=O)N[C@@H](CCCCN)C(=O)N[C@@H](CCCNC(=N)N)C(=O)N[C@@H](CCCNC(=N)N)C(=O)N[C@@H](CCC(N)=O)C(=O)N[C@@H](CCCNC(=N)N)C(=O)N[C@@H](CCCNC(=N)N)C(=O)N[C@@H](CCCNC(=N)N)C(=O)N1CCC[C@H]1C(=O)N1CCC[C@H]1C(=O)N[C@@H](CCC(N)=O)C(=O)O [Tat*]	643 ± 70.8	57.4 ± 7	2.4 ± 0.5	63.8 ± 5	11.1 ± 2.1
Ni	No interaction		DDEAQTLAKFVLSQK [Unrelated long, reference compound]					
Ni		No interaction	VLSQK [Unreleted short, reference compound]					
